# From patent US20050008639A1, “Methods of modulating homing of T cell by interruption of chemokine/chemokine receptor signaling” (priority 2003, published 2005)
# “Also recorded” adds a separate entry of the source.
# Tests used:
# [1] = system: IS-CD8^+ cells; assay: PTx-treated IS-CD8+ cells cultured in vitro (viability, peptide response); type: cell-based, mouse; conditions: 24 hrs after treatment (not shown)
# Protocol: Treatment with pertussis toxin (PTx)—For treatment with PTx, IS-CD8^+ cells were harvested, resuspended at 10^7 cells/ml in complete medium containing 100 ng/ml of PTx (Sigma) and incubated for 2 h at 37° C. The final 30 min of incubation were combined with DiI-labeling. Treated cells were washed and injected into irradiated hosts or cultured under standard conditions in vitro.
# [2] = system: G-protein-coupled chemokine receptors; assay: Homing of PTx-treated DiI-labeled IS-CD8+ cells after injection into NOD mice; type: in vivo, mouse
# Protocol: Fluorescent tracing and morphometric analysis—For trafficking studies, IS-CD8^+ and control T cells were incubated at 10^7 cells /ml for 30 min at 37° C. in the dark in complete medium containing 5% FCS and 0.0075 mg/ml of fluorescent dye didodecyltetramethylindocarbocyanine perchlorate (DiI) (Molecular Probes, Eugene, Oreg.), then washed 3 times with PBS. For analysis of short-term proliferation and adhesion studies IS-CD8^+ cells were stained in vitro with fluorescent dye carboxyfluorescein diacetate succinimidyl ester (CFSE) (Molecular Probes, Eugene, Oreg.) as described (12). 10^7 of labeled IS-CD8^+ cells were injected i.v. into irradiated (725 Rad, 24 h in advance) animals. Mice were sacrificed at time points indicated, and their spleens, pancreata, lymph nodes, peripheral blood and lungs were removed, lymphocytes were isolated as described (5), stained with allophycocyanin-conjugated anti-CD8 (53-6.7) antibody (BD Pharmingen), and subjected to FACS analysis. Alternatively, organs were fixed in 0.1 M periodate-lysine-paraformaldehyde phosphate buffer, sucrose-saturated, and freeze-molded in OCT compound (Sakura Finetek Inc., Torrance, Calif.). […] Cells were counted within areas relevant to a given islet (see FIG. 1 for representative image). […]
# [3] = system: islet cells / aortal endothelial cells; assay: Chromium release cytotoxicity assay with IS-CD8+ effector cells; type: cell-based, mouse; conditions: for killing of endothelial cells isolated from NOD aorta by IS-CD8+ cells: 0.1 μM exogenous peptide
# Protocol: Chromium release cytotoxicity assay—Pancreatic islets or monolayers of cultured aortal endothelial cells were dispersed into single-cell suspension by incubation in cell-dissociation buffer (Sigma), labeled with 100 μCi of Na2^51CrO4 (ICN Pharmaceuticals, Costa Mesa, Calif.) in 200 μl of complete Click's medium containing 5% FCS for 2 h at 37° C., washed three times, and co-cultured for 8-12 hours in 96-well plates (10^4 targets per well in 200 μl of Click's medium with 5% FCS) with effector IS CD8^+ cells at different effector-to-target ratios with different concentrations of InsB^15-23 peptide. To confirm the cytotoxic potential of IS-CD8^+ cells, labeled P815 mastocytoma (H2^d)cells were loaded with different concentrations of InsB^15-23 peptide and used as targets in the 4 hrs cytotoxicity assay. Specific cytotoxicity was based on the measurement of ^51Cr release in 100 μl aliquots of cell-free supernatant using a gamma-counter (Wallac, Turku, Finland) and calculated using the formula: Specific Cytotoxicity (%)=[(Experimental Release−Spontaneous Release)/(Maximum Release−Spontaneous Release)]×100%.
# [4] = system: IS-CD8^+ cells adhesion to aortal endothelium from NOD mice; assay: Parallel plate flow chamber adhesion assay under shear stress; type: cell-based, mouse
# Protocol: Primary vascular endothelium cell culture—Isolation and culture of vascular endothelium from mouse aorta was performed as described (16). Briefly, neutralized collagen extracellular matrix was aliquoted into 24-well plates, allowed to gel at 37° C. for 60 min, and equilibrated overnight with complete endothelial cell medium consisting of complete Click's medium with 20% FCS, and 50 μg/ml of Endothelial Cell Growth Supplement (Becton-Dickinson). The segments of thoracic aorta from adult NOD mice were placed endothelial-side down onto the collagen gel. Thirty-six hours later, 1 ml of complete endothelial cell medium was carefully added. After 3-5 days, the collagen gel was digested with a 0.3% collagenase H (Sigma) solution and the released cells were transferred to a T25 tissue culture flask. After reaching confluence, cells were detached by incubation with cell-dissociation buffer (Sigma), and split at a 1:3 ratio. Passage 2 to 5 cells were used for the experiments.
# Parallel Plate Flow Chamber and Adhesion Assay—Aortal endothelial cells were plated on 35 mm Costar tissue culture dishes and allowed to reach confluence. The cells were then treated for 2 -3 hrs with 100 μM of InsB^15-23 or LLO^91-99 peptides in complete endothelial cell medium. In some experiments anti-K^d (SF 1-1.1) blocking mAbs were added for 20 min before the adhesion assay. The adhesion of IS-CD8^+ cells under shear stress was examined with a parallel plate flow chamber obtained from Glycotech (Rockville, Md.) following the manufacturer's instructions and as previously described (17-19). A flow chamber with a 5-mm-wide gasket was used. Negative flow pressure was generated and controlled with an automated syringe pump (Braintree Scientific, Quincy, Mass.). IS-CD8^+ cells were labeled with CFSE as described above, pretreated in some experiments with 100 ng/ml of mouse recombinant SLC (R&D Systems) in Click's medium for 30 min, and injected at a concentration of 3×10^6/ml into the flow chamber. After IS-CD8^+ cells were allowed to settle on the plate for the indicated length of time, the flow rate was increased stepwise every 10 s in increments of […] (˜4 dynes/cm^2 shear stress) to a maximum of 7.7 ml/min (corresponding to ˜24 dynes/cm^2). Lymphocyte adhesion was visualized with a Leica inverted fluorescent microscope and recorded using a Spot-RT digital camera (Diagnostic Instruments, Sterling Heights, Mich.). Images were converted into digital movies and analyzed using Metamorph software (Universal Imaging Corp., Downingtown, Pa.). Labeled IS-CD8^+ cells were counted in frames separated by equal time intervals from the start of the stress. Adhesion of cells in each frame was determined as a fraction (%) of the initial number of cells in the frame preceding the start of flow.
molecule,measurement,setting,value
pertussis toxin [PTx],response of PTx-treated IS-CD8+ cells to InsB15-23 peptide stimulation,[1],responded normally
same,viability of IS-CD8+ cells treated with PTx,[1],did not lose their viability
same,distribution of PTx-treated IS-CD8+ cells in the spleen,"[2]; NOD mice, vs untreated cells",avoided T cell zones
same,homing of PTx-treated IS-CD8+ cells to the pancreatic islets,"[2]; cells treated in vitro with 100 ng/ml PTx for 2 h, injected into NOD mice, 24 hrs after injection",abolishes; also recorded: practically absent from the islets
"LLO^91-99 peptide: control K^d-binding listeriolysin-derived peptide (GYKDGNEYI; UniProt P13128 91-99, looked up, fragment)",killing of endothelial cells isolated from NOD aorta by IS-CD8+ cells,[3],no effect
"LYLVCGERG [InsB^15-23 peptide, synthetic insulin B chain peptide]",killing of endothelial cells isolated from NOD aorta by IS-CD8+ cells,[3],killed
same,lysis of islet β cells from H2k/d (C3D2) mice by IS-CD8+ cells,"[3]; peptide added exogenously, 50:1 effector-to-target ratio",restored
same,adhesion of the T cells to endothelial monolayers,"[4]; monolayers pre-cultivated with 100 μM peptide, no SLC, FIG. 7A",increased adhesion
same,contact time with endothelial cells prior to start of flow needed for adhesion significantly different from no-peptide control,"[4]; peptide-treated monolayers, no SLC",300 s
"SLC: mouse recombinant SLC (R&D Systems), chemokine CCL21 (protein, UniProt P84444 24-133, looked up) C-C motif chemokine 21a: SDGGGQDCCLKYSQKKIPYSIVRGYRKQEPSLGCPIPAILFSPRKHSKPELCANPEEGWVQNLMRRLDQPPAPGKQSPGCRKNRGTSKSGKKGKGSKGCKRTEQTQPSRG",time necessary for adhesion,"[4]; T cells pre-treated with 100 ng/ml SLC, endothelium with InsB15-23 peptide",90 s
same,baseline adhesion in the absence of specific peptide,[4]; T cells pre-treated with SLC,increased
same,fraction of adherent cells,[4]; T cells pre-treated with SLC vs not exposed to SLC,larger
